From patent US20250388565A1, “ESTROGEN RECEPTOR ALPHA DEGRADERS AND METHODS OF USE THEREOF” (Relay Therapeutics, Inc., priority 2022, published 2025)

target: T1, ERα protein (HiBiT-tagged) in ESR1_HiBiT KI MCF7 cells (Homo sapiens, UniProt P03372); assay: Nano Glo HiBiT Lytic Degradation Assay; assay type: cell-based; details: 6 hours with compound, 14-point dose response 1:3, bell-shape curve fit, half-maximal effect of first Hill model, read-out: MCF7 ESR1 HiBiT - (DC50)
T1 sequence (P03372 1-595): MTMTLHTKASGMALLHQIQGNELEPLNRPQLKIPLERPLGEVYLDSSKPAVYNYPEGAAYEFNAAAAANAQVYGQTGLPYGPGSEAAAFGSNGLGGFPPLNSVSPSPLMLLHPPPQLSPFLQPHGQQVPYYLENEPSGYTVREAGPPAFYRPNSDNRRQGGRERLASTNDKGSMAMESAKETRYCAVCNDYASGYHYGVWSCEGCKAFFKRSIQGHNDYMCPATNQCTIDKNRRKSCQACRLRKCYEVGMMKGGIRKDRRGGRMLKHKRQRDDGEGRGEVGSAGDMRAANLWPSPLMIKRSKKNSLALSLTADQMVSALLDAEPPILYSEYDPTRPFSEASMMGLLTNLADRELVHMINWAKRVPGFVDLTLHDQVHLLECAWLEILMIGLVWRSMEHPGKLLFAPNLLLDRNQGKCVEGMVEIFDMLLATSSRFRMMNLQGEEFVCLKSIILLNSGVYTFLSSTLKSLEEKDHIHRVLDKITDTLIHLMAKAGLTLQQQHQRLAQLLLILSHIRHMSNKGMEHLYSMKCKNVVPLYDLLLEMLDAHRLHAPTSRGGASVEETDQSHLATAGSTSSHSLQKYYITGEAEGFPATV
Procedure, shortened: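 HiBiT-tagged endogenous ERα remaining in MCF7 knock-in cells was quantified by lytic luminescence after a 6 h treatment. DC50 values derive from a bell-shaped curve, taken at the first Hill component's half-maximal effect.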

Compared with O=C1CC[C@@H](N2Cc3cc(N4CCN(CC5CCN(c6ccc([C@@H]7c8ccc(O)cc8C(F)(F)C[C@@H]7c7ccc(F)cc7)cc6)CC5)CC4)ccc3C2=O)C(=O)N1 [Compound I-310, (R)-3-(5-(4-((1-(4-((1R,2S)-4,4-difluoro-2-(4-fluorophenyl)-6-hydroxy-1,2,3,4-tetrahydronaphthalen-1-yl)phenyl)piperidin-4-yl)methyl)piperazin-1-yl)-1-oxoisoindolin-2-yl)piperidine-2,6-dione], O=C1CC[C@H](N2Cc3cc(N4CCN(CC5CCN(c6ccc([C@@H]7c8ccc(O)cc8C(F)(F)C[C@@H]7c7ccc(C(F)(F)F)cc7)cc6)CC5)CC4)ccc3C2=O)C(=O)N1 [Compound I-329, (S)-3-(5-(4-((1-(4-((1R,2S)-4,4-difluoro-6-hydroxy-2-(4-(trifluoromethyl)phenyl)-1,2,3,4-tetrahydronaphthalen-1-yl)phenyl)piperidin-4-yl)methyl)piperazin-1-yl)-1-oxoisoindolin-2-yl)piperidine-2,6-dione] is 6.2-fold lower in DC50: 5.74 nM for the first, 0.92 nM for the second.

Going from O=C1CC[C@H](N2Cc3cc(N4CCN(CC5CCN(c6ccc([C@@H]7c8ccc(O)cc8C(F)(F)C[C@@H]7c7ccccc7F)cc6)CC5)CC4)ccc3C2=O)C(=O)N1 [Compound I-312, (S)-3-(5-(4-((1-(4-((1R,2S)-4,4-difluoro-2-(2-fluorophenyl)-6-hydroxy-1,2,3,4-tetrahydronaphthalen-1-yl)phenyl)piperidin-4-yl)methyl)piperazin-1-yl)-1-oxoisoindolin-2-yl)piperidine-2,6-dione] to O=C1CC[C@H](N2Cc3cc(N4CCN(CC5CCN(c6ccc([C@H]7c8ccc(O)cc8C(F)(F)C[C@H]7c7ccccc7F)cc6)CC5)CC4)ccc3C2=O)C(=O)N1 [Compound I-313, (S)-3-(5-(4-((1-(4-((1S,2R)-4,4-difluoro-2-(2-fluorophenyl)-6-hydroxy-1,2,3,4-tetrahydronaphthalen-1-yl)phenyl)piperidin-4-yl)methyl)piperazin-1-yl)-1-oxoisoindolin-2-yl)piperidine-2,6-dione], the DC50 rises from 0.37 nM to 15 nM (41-fold).

Going from O=C1CC[C@H](N2Cc3cc(N4CCN(CC5CCN(c6ccc([C@@H]7c8ccc(O)cc8C(F)(F)C[C@@H]7c7ccc(F)c(F)c7)cc6)CC5)CC4)ccc3C2=O)C(=O)N1 [Compound I-314, (S)-3-(5-(4-((1-(4-((1R,2S)-2-(3,4-difluorophenyl)-4,4-difluoro-6-hydroxy-1,2,3,4-tetrahydronaphthalen-1-yl)phenyl)piperidin-4-yl)methyl)piperazin-1-yl)-1-oxoisoindolin-2-yl)piperidine-2,6-dione] to O=C1CC[C@H](N2Cc3cc(N4CCN(CC5CCN(c6ccc([C@H]7c8ccc(O)cc8C(F)(F)C[C@H]7c7ccc(F)c(F)c7)cc6)CC5)CC4)ccc3C2=O)C(=O)N1 [Compound I-315, (S)-3-(5-(4-((1-(4-((1S,2R)-2-(3,4-difluorophenyl)-4,4-difluoro-6-hydroxy-1,2,3,4-tetrahydronaphthalen-1-yl)phenyl)piperidin-4-yl)methyl)piperazin-1-yl)-1-oxoisoindolin-2-yl)piperidine-2,6-dione], the DC50 rises from 0.33 nM to no less than 10000 nM.

Compared with O=C1CC[C@H](N2Cc3cc(N4CCN(CC5CCN(c6ccc([C@@H]7c8ccc(O)cc8C(F)(F)C[C@@H]7c7cc(F)ccc7F)cc6)CC5)CC4)ccc3C2=O)C(=O)N1 [Compound I-316, (S)-3-(5-(4-((1-(4-((1R,2S)-2-(2,5-difluorophenyl)-4,4-difluoro-6-hydroxy-1,2,3,4-tetrahydronaphthalen-1-yl)phenyl)piperidin-4-yl)methyl)piperazin-1-yl)-1-oxoisoindolin-2-yl)piperidine-2,6-dione], O=C1CC[C@H](N2Cc3cc(N4CCN(CC5CCN(c6ccc([C@H]7c8ccc(O)cc8C(F)(F)C[C@H]7c7cc(F)ccc7F)cc6)CC5)CC4)ccc3C2=O)C(=O)N1 [Compound I-317, (S)-3-(5-(4-((1-(4-((1S,2R)-2-(2,5-difluorophenyl)-4,4-difluoro-6-hydroxy-1,2,3,4-tetrahydronaphthalen-1-yl)phenyl)piperidin-4-yl)methyl)piperazin-1-yl)-1-oxoisoindolin-2-yl)piperidine-2,6-dione] is 10-fold higher in DC50: 0.3 nM for the first, 3 nM for the second.

First: O=C1CC[C@H](N2Cc3cc(N4CCN(CC5CCN(c6ccc([C@@H]7c8ccc(O)cc8C(F)(F)C[C@@H]7c7ccc(F)cc7F)cc6)CC5)CC4)ccc3C2=O)C(=O)N1 [Compound I-318, (S)-3-(5-(4-((1-(4-((1R,2S)-2-(2,4-difluorophenyl)-4,4-difluoro-6-hydroxy-1,2,3,4-tetrahydronaphthalen-1-yl)phenyl)piperidin-4-yl)methyl)piperazin-1-yl)-1-oxoisoindolin-2-yl)piperidine-2,6-dione]
Second: O=C1CC[C@H](N2Cc3cc(N4CCN(CC5CCN(c6ccc([C@H]7c8ccc(O)cc8C(F)(F)C[C@H]7c7ccc(F)cc7F)cc6)CC5)CC4)ccc3C2=O)C(=O)N1 [Compound I-319, (S)-3-(5-(4-((1-(4-((1S,2R)-2-(2,4-difluorophenyl)-4,4-difluoro-6-hydroxy-1,2,3,4-tetrahydronaphthalen-1-yl)phenyl)piperidin-4-yl)methyl)piperazin-1-yl)-1-oxoisoindolin-2-yl)piperidine-2,6-dione]
The DC50 of the first is 330-fold lower: 0.33 nM for the first, 108 nM for the second.

Going from Cc1ccccc1[C@H]1CC(F)(F)c2cc(O)ccc2[C@H]1c1ccc(N2CCC(CN3CCN(c4ccc5c(c4)CN([C@H]4CCC(=O)NC4=O)C5=O)CC3)CC2)cc1 [Compound I-322, (S)-3-(5-(4-((1-(4-((1R,2S)-4,4-difluoro-6-hydroxy-2-(o-tolyl)-1,2,3,4-tetrahydronaphthalen-1-yl)phenyl)piperidin-4-yl)methyl)piperazin-1-yl)-1-oxoisoindolin-2-yl)piperidine-2,6-dione] to Cc1ccccc1[C@@H]1CC(F)(F)c2cc(O)ccc2[C@@H]1c1ccc(N2CCC(CN3CCN(c4ccc5c(c4)CN([C@H]4CCC(=O)NC4=O)C5=O)CC3)CC2)cc1 [Compound I-323, (S)-3-(5-(4-((1-(4-((1S,2R)-4,4-difluoro-6-hydroxy-2-(o-tolyl)-1,2,3,4-tetrahydronaphthalen-1-yl)phenyl)piperidin-4-yl)methyl)piperazin-1-yl)-1-oxoisoindolin-2-yl)piperidine-2,6-dione], the DC50 rises from 0.56 nM to 33 nM (59-fold).

Going from Cc1cc(F)ccc1[C@H]1CC(F)(F)c2cc(O)ccc2[C@H]1c1ccc(N2CCC(CN3CCN(c4ccc5c(c4)CN([C@H]4CCC(=O)NC4=O)C5=O)CC3)CC2)cc1 [Compound I-326, (S)-3-(5-(4-((1-(4-((1R,2S)-4,4-difluoro-2-(4-fluoro-2-methylphenyl)-6-hydroxy-1,2,3,4-tetrahydronaphthalen-1-yl)phenyl)piperidin-4-yl)methyl)piperazin-1-yl)-1-oxoisoindolin-2-yl)piperidine-2,6-dione] to Cc1cc(F)ccc1[C@@H]1CC(F)(F)c2cc(O)ccc2[C@@H]1c1ccc(N2CCC(CN3CCN(c4ccc5c(c4)CN([C@H]4CCC(=O)NC4=O)C5=O)CC3)CC2)cc1 [Compound I-327, (S)-3-(5-(4-((1-(4-((1S,2R)-4,4-difluoro-2-(4-fluoro-2-methylphenyl)-6-hydroxy-1,2,3,4-tetrahydronaphthalen-1-yl)phenyl)piperidin-4-yl)methyl)piperazin-1-yl)-1-oxoisoindolin-2-yl)piperidine-2,6-dione], the DC50 rises from 0.58 nM to no less than 10000 nM.

Compared with O=C1CC[C@H](N2Cc3cc(N4CCN(CC5CCN(c6ccc([C@H]7c8ccc(O)cc8C(F)(F)C[C@H]7c7ccccc7)cc6F)CC5)CC4)ccc3C2=O)C(=O)N1 [Compound I-328, (S)-3-(5-(4-((1-(4-((1S,2R)-4,4-difluoro-6-hydroxy-2-phenyl-1,2,3,4-tetrahydronaphthalen-1-yl)-2-fluorophenyl)piperidin-4-yl)methyl)piperazin-1-yl)-1-oxoisoindolin-2-yl)piperidine-2,6-dione], O=C1CC[C@H](N2Cc3cc(N4CCN(CC5CCN(c6ccc([C@H]7c8ccc(O)cc8C(F)(F)C[C@H]7c7ccc(C(F)(F)F)cc7)cc6)CC5)CC4)ccc3C2=O)C(=O)N1 [Compound I-330, (S)-3-(5-(4-((1-(4-((1S,2R)-4,4-difluoro-6-hydroxy-2-(4-(trifluoromethyl)phenyl)-1,2,3,4-tetrahydronaphthalen-1-yl)phenyl)piperidin-4-yl)methyl)piperazin-1-yl)-1-oxoisoindolin-2-yl)piperidine-2,6-dione] is 3.9-fold higher in DC50: 9 nM for the first, 35 nM for the second.

C[C@@H]1Cc2cc(O)ccc2[C@H](c2ccc(N3CCC(CN4CCN(c5ccc6c(c5)CN([C@H]5CCC(=O)NC5=O)C6=O)CC4)CC3)cc2)[C@@H]1c1ccccc1 [Compound I-333, (S)-3-(5-(4-((1-(4-((1S,2R,3R)-6-hydroxy-3-methyl-2-phenyl-1,2,3,4-tetrahydronaphthalen-1-yl)phenyl)piperidin-4-yl)methyl)piperazin-1-yl)-1-oxoisoindolin-2-yl)piperidine-2,6-dione] showed a DC50 of 21 nM.
